Test results taken from patent US20250340577A1, “BETA-LACTOMASE INHIBITORS AND USES THEREOF” (Case Western Reserve University, priority 2021, published 2025).
Like-named read-outs stand apart in the source and are kept apart here.

How the values were obtained:
[1] = system: Klebsiella pneumonia/FDA-CDC AR-BANK#0097; assay: MIC of MB076 alone or in combination with cefepime or meropenem; type: cell-based; details: Klebsiella pneumoniae; single agent; read-out: MIC
Method: (§1) MICs were determined by the Agar microdilution method, following CLSI guidelines. Compounds were tested at fixed concentration of 4 ug/ml in combination with cefepime.

[2] = system: Klebsiella pneumonia/FDA-CDC AR-BANK#0098; assay: as above; type: cell-based; details: Klebsiella pneumoniae; single agent; read-out: MIC
Method: as §1

[3] = system: Klebsiella pneumonia/BAA-1705; assay: as above; type: cell-based; details: Klebsiella pneumoniae, BAA1705; single agent; read-out: MIC
Method: as §1

[4] = system: K. pneumoniae AR-BANK #0098 (KPC-2); type: in vivo; details: for T > MIC / Time High / Time Low: female, ICR, mouse, in vivo, iv
Method: (§2) A single dose PK study with MB_076 has been conducted to evaluate antibiotic exposure over time in plasma samples and thigh homogenates following a single dose IV administration in K. pneumoniae AR-BANK #0098 (KPC-2) thigh infection model with neutropenic female ICR mice. Among the PK parameters, t1/2, C0, AUClast, AUCINF, Vss and CL were evaluated (Table 7), while for PD parameters, C0/MIC, AUClast/MIC and T>MIC were calculated (Table 8). In particular, the % time over the minimum inhibitory concentration (T>MIC) was calculated for all dose groups to determine the impact of MB076 efficacy in this animal model. Plots of concentration in plasma and thigh homogenate versus time were created and the linearity of the resulting PK parameters was assessed.

[5] = type: in vivo; details: for Abdominal tone / Body weight after 1° dose / Body weight after 4° dose / Limb tone / Vocalization: QID q6h; for Piloerection: animals of 4, after 4° dose; for Vocalization: animals of 4
Method: A maximum tolerable dose (MTD) assessment was conducted to evaluate the tolerability of MB076 with meropenem and cilastatin combination. Neutropenic uninfected female ICR mice were used. Meropenem combined with cilastatin was subcutaneously (SC) administered followed by intravenous (IV) administration of MB076 within 10 min. Doses were administered four times (QID) with 6 h intervals (q6h) for one day. Animals were monitored for acute symptoms after the first dose administration and cage side observations were recorded for the subsequent QID doses. Moreover, the body weight of each animal was recorded daily.

E. coli pLTCF2 = assay: MIC with cefepime, agar microdilution, CLSI; type: cell-based; details: compound fixed at 4 ug/ml
Method: (§3) Minimum inhibitory concentration (MIC) of MB076 and derivatives (PCF_038-043) in combination with cefepime.
as §1

E. coli DH10B pBC-SK P99 = assay: MIC with cefepime, agar microdilution, CLSI; type: cell-based; details: compound fixed at 4 ug/ml
Method: as §3, §1

K. pneumoniae 255 = assay: MIC with cefepime, agar microdilution, CLSI; type: cell-based; details: compound fixed at 4 ug/ml; TEM-1, SHV-2
Method: as §3, §1

E. coli ATCC BAA202 = assay: MIC with cefepime, agar microdilution, CLSI; type: cell-based; details: compound fixed at 4 ug/ml; SHV-1
Method: as §3, §1

[6] = Single dose IV PK in plasma and thigh homogenate, thigh infection model; type: in vivo, mice; details: for AUC(0-inf) / AUC(0-t) / C0 / clearance / half-life / Vd: female, ICR, mouse; for Vd: read-out: Vss
Method: as §2

[7] = MEM 500 mg/Kg + cilastatin 200 mg/Kg (SC) + MB076 25 mg/Kg (IV)
[8] = MEM 500 mg/Kg + cilastatin 200 mg/Kg (SC) + MB076 50 mg/Kg (IV)
[9] = MEM 1000 mg/Kg + cilastatin 200 mg/Kg (SC) + MB076 25 mg/Kg (IV)
[10] = MEM 1000 mg/Kg + cilastatin 200 mg/Kg (SC) + MB076 50 mg/Kg (IV)
[11] = MEM 1000 mg/Kg + cilastatin 200 mg/Kg (SC) + MB076 100 mg/Kg (IV)
[12] = plasma, 12.5 mg/kg IV single dose
[13] = plasma, 25 mg/kg IV single dose
[14] = plasma, 50 mg/kg IV single dose
[15] = plasma, 100 mg/kg IV single dose
[16] = thigh homogenate, 12.5 mg/kg IV single dose
[17] = thigh homogenate, 25 mg/kg IV single dose
[18] = thigh homogenate, 50 mg/kg IV single dose
[19] = thigh homogenate, 100 mg/kg IV single dose

Compound: Nc1nnc(SCC(=O)NC(Cn2cc(C(=O)O)nn2)B(O)O)s1 (centres unmarked) [MB076]
- MIC [1]: > 32 µg/mL
- MIC [2]: > 32 µg/mL
- MIC [3]: > 32 µg/mL
- T > MIC ([4]; 12.5 mg/kg): 1.69%
- Time High ([4]; 12.5 mg/kg): 0.40 h
- Time Low ([4]; 12.5 mg/kg): 23.60 h
- T > MIC ([4]; 12.5 mg/kg, 24 h): 0.24%
- Time High ([4]; 12.5 mg/kg, 24 h): 0.06 h
- Time Low ([4]; 12.5 mg/kg, 24 h): 23.94 h
- T > MIC ([4]; 50 mg/kg): 1.75%
- Time High ([4]; 50 mg/kg): 0.42 h
- T > MIC ([4]; 50 mg/kg, 24 h): 3.89%
- Time High ([4]; 50 mg/kg, 24 h): 0.93 h
- T > MIC ([4]; 100 mg/kg): 2.72%
- Time High ([4]; 100 mg/kg): 0.65 h
- Time Low ([4]; 100 mg/kg): 23.35 h
- T > MIC ([4]; 100 mg/kg, 24 h): 4.51%
- Time High ([4]; 100 mg/kg, 24 h): 1.08 h
- Time Low ([4]; 100 mg/kg, 24 h): 22.92 h
- AUClast/MIC ([4]; plasma, 12.5 mg/kg IV): 1.77 h
- AUClast/MIC ([4]; plasma, 25 mg/kg IV): 4.41 h
- AUClast/MIC ([4]; plasma, 50 mg/kg IV): 9.75 h
- AUClast/MIC ([4]; plasma, 100 mg/kg IV): 25.81 h
- AUClast/MIC ([4]; thigh, 12.5 mg/kg IV): 0.25 h
- AUClast/MIC ([4]; thigh, 25 mg/kg IV): 0.43 h
- AUClast/MIC ([4]; thigh, 50 mg/kg IV): 1.56 h
- AUClast/MIC ([4]; thigh, 100 mg/kg IV): 4.30 h
- Abdominal tone [5, 7]: Mild
- Body weight after 1° dose [5, 7]: 23
- Body weight after 4° dose [5, 7]: 22
- Limb tone [5, 7]: Mild
- Abdominal tone [5, 8]: increased
- Body weight after 1° dose [5, 8]: 23
- Body weight after 4° dose [5, 8]: 22.2
- Limb tone [5, 8]: Mild
- Abdominal tone [5, 9]: Mild
- Body weight after 1° dose [5, 9]: 23.2
- Body weight after 4° dose [5, 9]: 21.7
- Limb tone [5, 9]: Mild
- Abdominal tone [5, 10]: Mild
- Body weight after 1° dose [5, 10]: 23
- Body weight after 4° dose [5, 10]: 22
- Limb tone [5, 10]: Mild
- Abdominal tone [5, 11]: Mild
- Body weight after 1° dose [5, 11]: 23
- Body weight after 4° dose [5, 11]: 22
- Limb tone [5, 11]: increased and Mild
- Acute toxicity or mortality ([5]; all tested dose groups, MB076 IV with meropenem + cilastatin SC, QID q6h one day, neutropenic uninfected female ICR mice): No acute toxicity or mortality was observed
- Piloerection [5, 7]: 4/4 after
- Piloerection [5, 8]: 4/4 after
- Piloerection [5, 9]: 4/4 after
- Piloerection [5, 10]: 4/4 after
- Piloerection [5, 11]: 4/4 after
- Vocalization [5, 7]: 1/4
- Vocalization [5, 8]: 0/4
- Vocalization [5, 9]: 2/4
- Vocalization [5, 10]: 3/4
- Vocalization [5, 11]: 0/4
- MIC of cefepime in combination with compound (E. coli pLTCF2): < 0.25 µg/mL
- MIC of cefepime in combination with compound (E. coli DH10B pBC-SK P99): < 0.25 µg/mL
- MIC of cefepime in combination with compound (K. pneumoniae 255): 2 µg/mL
- MIC of cefepime in combination with compound (E. coli ATCC BAA202): < 0.25 µg/mL
- AUC(0-inf) [6, 12]: 7200 ng·h/mL
- AUC(0-t) [6, 12]: 7100 ng·h/mL
- C0 [6, 12]: 35.6 µg/mL
- clearance [6, 12]: 29.1 mL/min/kg
- half-life [6, 12]: 33.6 min
- Vd [6, 12]: 0.65 L/kg
- AUC(0-inf) [6, 13]: 17800 ng·h/mL
- AUC(0-t) [6, 13]: 17600 ng·h/mL
- C0 [6, 13]: 84 µg/mL
- clearance [6, 13]: 23.4 mL/min/kg
- half-life [6, 13]: 36.6 min
- Vd [6, 13]: 0.8 L/kg
- AUC(0-inf) [6, 14]: 39100 ng·h/mL
- AUC(0-t) [6, 14]: 39000 ng·h/mL
- C0 [6, 14]: 207 µg/mL
- clearance [6, 14]: 21.3 mL/min/kg
- half-life [6, 14]: 25.8 min
- Vd [6, 14]: 0.35 L/kg
- AUC(0-inf) [6, 15]: 104000 ng·h/mL
- AUC(0-t) [6, 15]: 103000 ng·h/mL
- C0 [6, 15]: 638 µg/mL
- clearance [6, 15]: 16.1 mL/min/kg
- half-life [6, 15]: 25.8 min
- Vd [6, 15]: 0.21 L/kg
- AUC(0-inf) [6, 16]: 1000 ng·h/mL
- AUC(0-t) [6, 16]: 1000 ng·h/mL
- C0 [6, 16]: 6.3 µg/mL
- half-life [6, 16]: 14.4 min
- Vd [6, 16]: 2.96 L/kg
- AUC(0-inf) [6, 17]: 1800 ng·h/mL
- AUC(0-t) [6, 17]: 1700 ng·h/mL
- C0 [6, 17]: 17 µg/mL
- half-life [6, 17]: 6.6 min
- Vd [6, 17]: 1.38 L/kg
- AUC(0-inf) [6, 18]: 6300 ng·h/mL
- AUC(0-t) [6, 18]: 6300 ng·h/mL
- C0 [6, 18]: 34 µg/mL
- half-life [6, 18]: 12.6 min
- Vd [6, 18]: 1.76 L/kg
- AUC(0-inf) [6, 19]: 17300 ng·h/mL
- AUC(0-t) [6, 19]: 17200 ng·h/mL
- C0 [6, 19]: 108 µg/mL
- half-life [6, 19]: 15 min
- Vd [6, 19]: 1.07 L/kg
- Linearity of C0 and AUClast with dose ([6]; plasma and thigh homogenates, 12.5-100 mg/kg IV): correlated linearly with dose
